Experimental data reported in patent publication US8536187B2 (Gilead Sciences, Inc., priority 2008, dated 2013).

Assays:
[1] = tested on: HCV replicon in human hepatoma Huh-7 cell line; assay: Anti-HCV replicon assay, EC50 (luciferase luminescence); format: cell-based; settings: Hepatitis C virus, Huh-7, 72 h
Outline: (§1)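 Huh-7 cells carrying HCV replicon (6000/well) incubated with serially diluted compound, 0.5% DMSO final, 3 days at 37° C, 5% CO2. EC50 from luciferase luminescence after 30 min lysis/substrate at room temperature; CC50 from CellTiter-Glo luminescence after 10 min at room temperature.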

[2] = CC50 assay (CellTiter-Glo) in Huh-7 HCV replicon cells; format: cell-based; settings: human, Table 2, 3 days incubation
Outline: as §1

Row | Structure (SMILES) | EC50 [1] [nM] | CC50 at 3 days [2] [nM]
1 | COCCNc1nc(NCC(F)(F)F)c2nc(-c3ccc(OC)c(S(C)(=O)=O)c3)ccc2n1 [Example 153, 6-(4-methoxy-3-(methylsulfonyl)phenyl)-N^2-(2-methoxyethyl)-N^4-(2,2,2-trifluoroethyl)pyrido[3,2-d] pyrimidine-2,4-diamine] | < 100 | > 10000
2 | CC[C@@H](Nc1nc(NCC(F)(F)F)c2nc(-c3ccc(OC)c(S(C)(=O)=O)c3)ccc2n1)c1ccc(S(N)(=O)=O)cc1 [Example 154, 4-((R)-1-(6-(4-methoxy-3-(methylsulfonyl)phenyl)-4-(2,2,2-trifluoroethylamino)pyrido[3,2-d]pyrimidin-2-ylamino)propyl)benzene-sulfonamide] | 100 to 250 | > 10000
3 | C[C@@H](Nc1nc(NCC(F)(F)F)c2nc(-c3ccc(Cl)c(S(C)(=O)=O)c3)ccc2n1)c1ccc(S(N)(=O)=O)cc1 [Example 155, 4-((R)-1-(6-(4-chloro-3-(methylsulfonyl)phenyl)-4-(2,2,2-trifluoroethylamino)pyrido[3,2-d]pyrimidin-2-ylamino)ethyl)benzene-sulfonamide] | < 100 | 1000 to 10000
4 | C[C@@H](Nc1nc(NCC(F)(F)F)c2nc(-c3cncc(S(C)(=O)=O)c3)ccc2n1)c1ccc(S(N)(=O)=O)cc1 [Example 156, 4-((R)-1-(6-(5-(methylsulfonyl)pyridin-3-yl)-4-(2,2,2-trifluoroethylamino)pyrido [3,2-d]pyrimidin-2-ylamino)ethyl)benzenesulfonamide] | 250 to 2000 | > 10000
5 | COc1ccc(-c2ccc3nc(NCc4ccc(S(N)(=O)=O)cc4)nc(NCC(F)(F)F)c3n2)cc1S(=O)(=O)C1CC1 [Example 157, 4-((6-(3-(cyclopropylsulfonyl)-4-methoxyphenyl)-4-(2,2,2-trifluoroethylamino)pyrido [3,2-d]pyrimidin-2-ylamino)methyl)benzenesulfonamide] | < 100 | > 10000
6 | CS(=O)(=O)c1cccc(-c2ccc3nc(NCC(O)CO)nc(NCC(F)(F)F)c3n2)c1 (stereo not shown) [Example 158, 3-(6-(3-(methylsulfonyl)phenyl)-4-(2,2,2-trifluoroethylamino)pyrido[3,2-d]pyrimidin-2-ylamino)propane-1,2-diol] | 250 to 2000 | > 10000
7 | CC(C)(O)CNc1nc(NCC(F)(F)F)c2nc(-c3cccc(S(C)(=O)=O)c3)ccc2n1 [Example 159, 2-methyl-1-(6-(3-(methylsulfonyl)phenyl)-4-(2,2,2-trifluoroethylamino)pyrido[3,2-d]pyrimidin-2-ylamino)propan-2-ol] | 100 to 250 | > 10000
8 | COc1ccc(-c2ccc3nc(NCc4ccc(F)c(F)c4)nc(NCC(F)(F)F)c3n2)cc1S(C)(=O)=O [Example 161, N^2-(3,4-difluorobenzyl)-6-(4-methoxy-3-(methylsulfonyl)phenyl)-N^4-(2,2,2-trifluoroethyl) pyrido[3,2-d]pyrimidine-2,4-diamine] | < 100 | > 10000
9 | CS(=O)(=O)c1cccc(-c2ccc3nc(NCCO)nc(NCC(F)(F)F)c3n2)c1 [Example 162, 2-(6-(3-(methylsulfonyl)phenyl)-4-(2,2,2-trifluoroethyl-amino)pyrido[3,2-d]pyrimidin-2-ylamino)ethanol] | 250 to 2000 | > 10000
10 | CS(=O)(=O)c1cccc(-c2ccc3nc(NCc4ccc(-n5cncn5)cc4)nc(NCC(F)(F)F)c3n2)c1 [Example 163, N^2-(4-(1H-1,2,4-triazol-1-yl)benzyl)-6-(3-(methylsulfonyl)phenyl)-N^4-(2,2,2-trifluoroethyl) pyrido[3,2-d]pyrimidine-2,4-diamine] | < 100 | > 10000
11 | CS(=O)(=O)c1cc(-c2ccc3nc(NCc4ccc(S(N)(=O)=O)cc4)nc(NCC(F)(F)F)c3n2)ccc1OC(F)F [Example 164, 4-((6-(4-(difluoromethoxy)-3-(methylsulfonyl)phenyl)-4-(2,2,2-trifluoroethylamino)pyrido[3,2-d]pyrimidin-2-ylamino)methyl)benzene-sulfonamide] | < 100 | > 10000
